# Results taken from US9249151B2, “Bis-amido pyridines” (Boehringer Ingelheim International GmbH, priority 2013, dated 2016).
# Molecular target: BIR3 domain of human cIAP1 (amino acids 256 to 363; cIAP1 BIR3) (Homo sapiens (Human), UniProt Q13490)
# Test: cIAP1 BIR3 binding assay (DELFIA)
# Conditions: not given
# Experimental: XIAP BIR3 and cIAP1 BIR3 Binding Assays (DELFIA)
# Peptide […]-Lys(Biotin), representing the N-terminus of mature human SMAC (SMAC peptide), was used as interaction partner in the protein-peptide interaction assay.
# BIR3 domains (10 nM) were incubated with SMAC peptide (10 nM) in assay buffer (50 mM Tris, 120 mM NaCl, 0.1% BSA, 1 mM DTT, 0.05% TritonX100) for one hour at room temperature in the presence of inhibitory compounds. The assay mixture was transferred to a streptavidin coated plate and incubated for one hour at room temperature to allow binding of the biotinylated peptide and associated BIR3 domains to the plate. After several washing steps Eu labeled anti-GST antibody (e.g. Perkin Elmer DELFIA Eu-N1-antiGST AD0250) was added to detect BIR3 domain-SMAC peptide interactions m according to Perkin Elmer's instructions. […] Time resolved Europium fluoresecence was measured in a Wallac Victor using Standard assay settings.
# DELFIA assay results were plotted against compound concentrations and Software GraphPad Prizm was used to calculate half maximal inhibitory concentrations (IC50 values).
# BIR3 domain of human cIAP1 (amino acids 256 to 363; cIAP1 BIR3), sequence (Q13490 256-363): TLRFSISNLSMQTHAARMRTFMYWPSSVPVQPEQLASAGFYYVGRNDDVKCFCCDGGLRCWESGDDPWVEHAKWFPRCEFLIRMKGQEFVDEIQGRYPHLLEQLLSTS
row,Compound,IC50 [nM]
1,"CNC(C)C(=O)Nc1cc(-c2nc(C)nc3c(C)nn(C)c23)cc(NC(=O)c2ncc(Cl)cc2C)n1 (centres unmarked) [Example 60, 5-chloro-3-methyl-N-{6-[2-(methylamino)propanamido]-4-{trimethyl-1H-pyrazolo-[4,3-d]pyrimidin-7-yl}-pyridin-2-yl}pyridine-2-carboxamide]",34

# Same assay, conditions: BIR3 domain 10 nM, SMAC peptide 10 nM; values represent the (S)-isomers; * = racemic compound; read-out: cIAP1 BIR-3 IC50
row,IC50 [nM],Compound
1,17,"CNC(C)C(=O)Nc1cc(-c2ccncc2C)cc(NC(=O)c2ccc(Cl)cn2)n1 (centres unmarked) [Example 47, 5-chloro-N-{6-[2-(methylamino)propanamido]-4-(3-methylpyridin-4-yl)pyridin-2-yl}pyridine-2-carboxamide]"
2,1,"CNC(C)C(=O)Nc1cc(-c2cnc3cccc(Cl)n23)cc(NC(=O)c2ccc(Cl)cn2)n1 (centres unmarked) [Example 18, 5-chloro-N-(4-{5-chloroimidazo[1,2-a]pyridin-3-yl}-6-[2-(methylamino)propanamido]-pyridin-2-yl)pyridine-2-carboxamide]"
3,11,"CNC(C)C(=O)Nc1cc(-c2c(Cl)cnc3ccccc23)cc(NC(=O)c2ccc(Cl)cn2)n1 (centres unmarked) [Example 54, 5-chloro-N-[4-(3-chloroquinolin-4-yl)-6-[2-(methylamino)propanamido]pyridin-2-yl]pyridine-2-carboxamide]"
4,1,"CNC(C)C(=O)Nc1cc(-c2ncnc3cccc(F)c23)cc(NC(=O)c2ccc(Cl)cn2)n1 (centres unmarked) [Example 14, 5-chloro-N-[4-(5-fluoroquinazolin-4-yl)-6-[2-(methylamino)propanamido]-pyridin-2-yl]pyridine-2-carboxamide]"
5,4940,"CNC(C)C(=O)Nc1cc(-c2c(C)ccc3ncccc23)cc(NC(=O)c2cn(C)cn2)n1 (centres unmarked) [Example 45, 1-methyl-N-{6-[2-(methylamino)propanamido]-4-(6-methylquinolin-5-yl)pyridin-2-yl}-1H-imidazole-4-carboxamide]"
6,598,"CNC(C)C(=O)Nc1cc(-c2c(C)ccc3ncccc23)cc(NC(=O)c2cccc(C)n2)n1 (centres unmarked) [Example 40, 6-methyl-N-{6-[2-(methylamino)propanamido]-4-(6-methylquinolin-5-yl)pyridin-2-yl}pyridine-2-carboxamide]"
7,1,"CNC(C)C(=O)Nc1cc(-c2ncnc3cccc(Cl)c23)cc(NC(=O)c2ccc(Cl)cn2)n1 (centres unmarked) [Example 22, 5-chloro-N-[4-(5-chloroquinazolin-4-yl)-6-[2-(methylamino)propanamido]-pyridin-2-yl]pyridine-2-carboxamide]"
8,421,"Cc1ccc(C(=O)Nc2cccc(NC(=O)C(C)N)n2)nc1 (centres unmarked) [Example 57, N-[6-(2-aminopropanamido)pyridin-2-yl]-5-methylpyridine-2-carboxamide]"
9,225,"CNC(C)C(=O)Nc1cc(-c2c(OC)ccc3ccccc23)cc(NC(=O)c2ccc(Cl)cn2)n1 (centres unmarked) [Example 19, 5-chloro-N-[4-(2-methoxynaphthalen-1-yl)-6-[2-(methylamino)propanamido]-pyridin-2-yl]pyridine-2-carboxamide]"
10,28,"CNC(C)C(=O)Nc1cc(-c2c(C)ccc3ncccc23)cc(NC(=O)c2ccc(C)cn2)n1 (centres unmarked) [Example 29, 5-methyl-N-{6-[2-(methylamino)propanamido]-4-(6-methylquinolin-5-yl)pyridin-2-yl}pyridine-2-carboxamide]"
11,1,"CNC(C)C(=O)Nc1cc(-c2ncnc3nc(C)n(C)c23)cc(NC(=O)c2ccc(Cl)cn2)n1 (centres unmarked) [Example 16, 5-chloro-N-[4-(7,8-dimethyl-7H-purin-6-yl)-6-[2-(methylamino)propanamido]-pyridin-2-yl]pyridine-2-carboxamide]"
12,2600,"CNC(C)C(=O)Nc1cc(-c2c(C)ccc3ncccc23)cc(NC(=O)c2cccnn2)n1 (centres unmarked) [Example 43, N-{6-[2-(methylamino)propanamido]-4-(6-methylquinolin-5-yl)pyridin-2-yl}pyridazine-3-carboxamide]"
13,428,"CNC(C)C(=O)Nc1cc(-c2c(C)ccc3ncccc23)cc(NC(=O)c2ccncn2)n1 (centres unmarked) [Example 37, N-{6-[2-(methylamino)propanamido]-4-(6-methylquinolin-5-yl)pyridin-2-yl)pyrimidine-4-carboxamide]"
14,4600,"CC(N)C(=O)Nc1cc(Cl)cc(NC(=O)c2ccccn2)n1 (centres unmarked) [Example 56, N-[6-(2-aminopropanamido)-4-chloropyridin-2-yl]pyridine-2-carboxamide]"

# Second part, the compound before the results:
row,Compound,IC50 [nM]
1,"CNC(C)C(=O)Nc1cc(-c2ncnc3c(C)nn(C)c23)cc(NC(=O)c2ncc(Cl)cc2C)n1 (centres unmarked) [Example 61, 5-chloro-N-(4-{1,3-dimethyl-1H-pyrazolo[4,3-d]pyrimidin-7-yl}-6-[2-(methylamino)-propanamido]pyridin-2-yl)-3-methylpyridine-2-carboxamide]",1
2,"CNC(C)C(=O)Nc1cc(-c2nn(C)c3ncnc(N)c23)cc(NC(=O)c2ccccn2)n1 (centres unmarked) [Example 17, N-(4-{4-amino-1-methyl-1H-pyrazolo[3,4-d]pyrimidin-3-yl}-6-[2-(methylamino)propanamido]-pyridin-2-yl)pyridine-2-carboxamide]",95
3,CNC(C)C(=O)Nc1cc(-c2cccc3cncc(C)c23)cc(NC(=O)c2ccc(Cl)cn2)n1 (centres unmarked) [Example 53],1
4,"CNC(C)C(=O)Nc1cc(-c2c(OC)ccc3nccnc23)cc(NC(=O)c2ccc(Cl)cn2)n1 (centres unmarked) [Example 20, 5-chloro-N-[4-(6-methoxyquinoxalin-5-yl)-6-[2-(methylamino)propanamido]-pyridin-2-yl]pyridine-2-carboxamide]",50
5,CNC(C)C(=O)Nc1cc(-c2cccc3nc(C)c(C)n23)cc(NC(=O)c2ccc(Cl)cn2)n1 (centres unmarked) [Example 11],1
6,"CNC(C)C(=O)Nc1cc(-c2c(C)ccc3ncccc23)cc(NC(=O)c2ccc(OC)cn2)n1 (centres unmarked) [Example 33, 5-methoxy-N-{6-[2-(methylamino)propanamido]-4-(6-methylquinolin-5-yl)pyridin-2-yl}pyridine-2-carboxamide]",59
7,"CNC(C)C(=O)Nc1cc(-c2cccc3nc(C)c(C)n23)cc(NC(=O)c2cc3ccccc3[nH]2)n1 (centres unmarked) [Example 50, N-(4-{2,3-dimethylimidazo[1,2-a]pyridin-5-yl}-6-[2-(methylamino)propanamido]pyridin-2-yl)-1H-indole-2-carboxamide]",348
8,"CNC(C)C(=O)Nc1cc(-c2c(C)nc3cccc(C)n23)cc(NC(=O)c2ccc(Cl)cn2)n1 (centres unmarked) [Example 10, 5-chloro-N-(4-{2,5-dimethylimidazo[1,2-a]pyridin-3-yl]-6-[2-(methylamino)propanamido]-pyridin-2-yl)pyridine-2-carboxamide]",7
9,"CNC(C)C(=O)Nc1cc(-c2nc(C)nc3c(C)nn(C)c23)cc(NC(=O)c2ccc(Cl)cn2)n1 (centres unmarked) [Example 21, 5-chloro-N-{6-[2-(methylamino)propanamido]-4-{trimethyl-1H-pyrazolo[4,3-d]pyrimidin-7-yl}pyridin-2-yl}pyridine-2-carboxamide]",1
10,"CNC(C)C(=O)Nc1cc(-c2c(C)ccc3ncccc23)cc(NC(=O)c2cc3ccccc3o2)n1 (centres unmarked) [Example 38, N-{6-[2-(methylamino)propanamido]-4-(6-methylquinolin-5-yl)pyridin-2-yl)-1-benzofuran-2-carboxamide]",514
11,"CNC(C)C(=O)Nc1cc(-c2c(C)ccc3ncccc23)cc(NC(=O)c2ccc(C#N)cn2)n1 (centres unmarked) [Example 30, 5-cyano-N-{6-[2-(methylamino)propanamido]-4-(6-methylquinolin-5-yl)pyridin-2-yl}pyridine-2-carboxamide]",36
12,"CNC(C)C(=O)Nc1cc(-c2c(C)ccc3ncccc23)cc(NC(=O)c2cnc(C)cn2)n1 (centres unmarked) [Example 34, 5-methyl-N-{6-[2-(methylamino)propanamido]-4-(6-methylquinolin-5-yl)pyridin-2-yl}pyrazine-2-carboxamide]",104
13,"CNC(C)C(=O)Nc1cc(-c2c(C)ccc3ncccc23)cc(NC(=O)c2ccc3ccccc3n2)n1 (centres unmarked) [Example 36, N-{6-[2-(methylamino)propanamido]-4-(6-methylquinolin-5-yl)pyridin-2-yl}quinoline-2-carboxamide]",170
14,"CNC(C)C(=O)Nc1cc(-c2c(C)ccc3ncccc23)cc(NC(=O)c2ncc3ccccc3n2)n1 (centres unmarked) [Example 31, N-{6-[2-(methylamino)propanamido]-4-(6-methylquinolin-5-yl)pyridin-2-yl}quinazoline-2-carboxamide]",52
15,"CNC(C)C(=O)Nc1cc(-c2nc(C)nc3c(C)nn(C)c23)cc(NC(=O)c2ncc(Cl)cc2F)n1 (centres unmarked) [Example 62, 5-chloro-3-fluoro-N-{6-[2-(methylamino)propanamido]-4-{trimethyl-1H-pyrazolo-[4,3-d]pyrimidin-7-yl}-pyridin-2-yl)pyridine-2-carboxamide]",1
16,"CNC(C)C(=O)Nc1cc(-c2nccc3c(=O)n(C)n(C)c23)cc(NC(=O)c2ccc(Cl)cn2)n1 (racemic) [Example 58, 5-chloro-N-(4-{1,2-dimethyl-3-oxo-1H,2H,3H-pyrazolo-[3,4-c]pyridin-7-yl}-6-[2-(methylamino)propanamido]-pyridin-2-yl)pyridine-2-carboxamide]",3
17,"CNC(C)C(=O)Nc1cc(-c2cccc3nc(C)c(C)n23)cc(NC(=O)c2ccc(OC)cn2)n1 (centres unmarked) [Example 51, N-(4-{2,3-dimethylimidazo[1,2-a]pyridin-5-yl}-6-[2-(methylamino)propanamido]pyridin-2-yl)-5-methoxypyridine-2-carboxamide]",1
